The target in test [1] is T1, PPAR Alpha (Homo sapiens, UniProt Q07869).
T1 sequence (Q07869 1-468): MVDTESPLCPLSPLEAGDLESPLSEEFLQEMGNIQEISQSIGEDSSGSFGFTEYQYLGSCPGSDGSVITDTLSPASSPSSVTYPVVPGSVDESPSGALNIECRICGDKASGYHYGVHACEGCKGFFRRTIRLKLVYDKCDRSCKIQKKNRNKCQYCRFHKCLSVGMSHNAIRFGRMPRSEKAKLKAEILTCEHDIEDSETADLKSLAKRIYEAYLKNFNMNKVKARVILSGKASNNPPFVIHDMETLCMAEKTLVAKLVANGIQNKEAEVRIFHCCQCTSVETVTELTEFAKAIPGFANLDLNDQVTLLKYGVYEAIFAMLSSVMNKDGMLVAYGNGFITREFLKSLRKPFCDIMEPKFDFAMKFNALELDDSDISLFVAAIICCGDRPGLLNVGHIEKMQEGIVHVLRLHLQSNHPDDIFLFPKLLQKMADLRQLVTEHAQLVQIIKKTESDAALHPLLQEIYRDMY
Briefly: PathHunter NHR protein interaction test, agonist mode, PPAR Alpha. It counts as cell-based. The text has this:
(§1) Principles of in Vitro Test of PPAR Agonist Activity
(§2) Nuclear Hormone Receptor (NHR) Test
(§3) PathHunter's NHR protein interaction and nuclear transfer test are used to detect the activation ability of nuclear hormone receptor in a uniform, non-imaging experiment. This technology is called as enzyme fragment complementation […], and is developed by DiscoverX.
(§4) NHR protein test is based on the detection of the protein-protein interaction between a standard length of NHR protein in an activated state and a nuclear fusion protein containing a steroid receptor co-activating peptide (SRCP) region and one or more standard LXXLL acting sequences.
(§5) NHR is labeled on the ProLink™ component of an EFC test system, and the SRCP region and the enzyme receptor component (EA) are fused and expressed in the nucleus. When bound to the ligand, the NHR will transfer to the nucleus and obtain the SRCP region in which a complementary effect is produced, thereby generating an equivalent amount of activated-galactosidase (-Gal), accompanied by the generation of chemical light signals. The benefits associated with this pathway include reduced incubation time of the compound, direct test of an NHR target, use of human NHR sequences with a standard length, and selection of some new classes of compounds based on the disruption of protein-protein interactions.
(§6) The NHR NT test detected the transfer of an NHR between the cytoplasmic and nuclear compartments. The receptor was labeled on the ProLink™ component of the EFC test system, while the EA and nuclear sequence were fused, thereby limiting the expression of EA on the nucleus. Nucleus transfer leaded to the complementary effect with EA, thereby generating one equivalent of activated galactosidase (-Gal), accompanied by the generation of chemical light signals.
(§7) 1. PathHunter NHR cell strains were spread from a frozen stock in accordance with standard operations.
(§8) 2. Cells were seeded onto a 384-well white cell plate of 20 uL/well, and incubated at 37° C. for an appropriate time prior to test. The culture medium contained activated carbon dextran with filtered serum to reduce the level of hormone expression.
(§9) Experiments of Agonist Mode:
(§10) 1. As for the measurement of an agonist activity, it is required to incubate the cells with the compound to induce a response.
2. […]
(§11) 2. The chemiluminescence signals generated by the microplate were to be detected by a PerkinElmer Envision instrument.
(§12) 1. The activity of the compound was analyzed by CIBS data analysis software (ChemInnovation, CA).
(§13) 2. For experiments of agonist mode, the percentage activity is calculated by the following formula: % activity=100%×(the mean RLU of the compound to be tested−the mean background RLU of the medium)/(the mean of maximum control of the ligand−the mean background RLU of the medium)

Test [2] concerns the target T2, PPAR Gamma (Homo sapiens, UniProt P37231).
T2 sequence (P37231 1-505): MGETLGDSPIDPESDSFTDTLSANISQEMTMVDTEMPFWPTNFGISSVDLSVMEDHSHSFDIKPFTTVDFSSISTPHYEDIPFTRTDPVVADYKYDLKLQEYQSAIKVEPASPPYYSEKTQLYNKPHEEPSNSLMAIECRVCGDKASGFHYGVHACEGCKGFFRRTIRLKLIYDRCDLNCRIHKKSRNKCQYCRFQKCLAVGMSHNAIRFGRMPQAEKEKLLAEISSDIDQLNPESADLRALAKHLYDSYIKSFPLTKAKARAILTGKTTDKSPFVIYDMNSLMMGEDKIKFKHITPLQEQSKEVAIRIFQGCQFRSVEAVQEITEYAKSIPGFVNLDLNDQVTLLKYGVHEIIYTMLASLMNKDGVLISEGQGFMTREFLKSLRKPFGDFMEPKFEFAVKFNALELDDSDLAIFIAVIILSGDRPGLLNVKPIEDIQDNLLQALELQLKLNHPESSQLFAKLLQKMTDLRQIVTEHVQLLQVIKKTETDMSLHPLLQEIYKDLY
Briefly: PathHunter NHR protein interaction test, agonist mode, PPAR Gamma. Format: cell-based.
Excerpt: as §1, §2, §3, §4, §5
The NHR NT test detected the transfer of an NHR between the cytoplasmic and nuclear compartments. […]
as §11, §12, §13

Test [3] deals with MCD diet-induced db/db mouse NASH. Briefly: MCD diet-induced db/db mouse NASH model. It counts as in vivo. The settings on record: no data shown.
Test [4] concerns the target T3, PPAR Delta (Homo sapiens, UniProt Q03181).
T3 sequence (Q03181 1-441): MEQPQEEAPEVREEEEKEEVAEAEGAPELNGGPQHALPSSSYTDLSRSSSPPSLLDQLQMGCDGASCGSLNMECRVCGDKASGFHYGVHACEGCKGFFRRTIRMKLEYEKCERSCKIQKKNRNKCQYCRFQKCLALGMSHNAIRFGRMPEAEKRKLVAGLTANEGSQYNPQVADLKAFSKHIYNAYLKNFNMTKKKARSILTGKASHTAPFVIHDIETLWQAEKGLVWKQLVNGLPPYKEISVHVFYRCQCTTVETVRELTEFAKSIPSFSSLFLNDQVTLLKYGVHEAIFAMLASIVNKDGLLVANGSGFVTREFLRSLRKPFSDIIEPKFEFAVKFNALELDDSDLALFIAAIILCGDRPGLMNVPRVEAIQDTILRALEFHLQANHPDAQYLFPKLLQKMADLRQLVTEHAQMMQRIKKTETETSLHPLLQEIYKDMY
Briefly: PathHunter NHR protein interaction test, agonist mode, PPAR Delta. Format: cell-based.
Excerpt: as §1, §2, §3, §4, §5, §6, §7, §8, §9, §10
2. […]
as §11, §12, §13

Test [5] deals with CCl4-induced C57BL/6 mouse acute liver injury. The test is described as follows: CCl4-induced C57BL/6 mouse acute liver injury experiment. It counts as in vivo. Particulars: no data shown.

Data on one compound can be found in US11396493B2, “Amorphous pyrrolidine derivative as PPAR agonist and preparation method thereof” (GUANGDONG RAYNOVENT BIOTECH CO., LTD., priority 2017, dated 2022).

Turning to `CSc1ccc(C(=O)[C@@H]2CN(C(=O)Oc3ccccc3)C[C@H]2Cc2cc(C)c(OC(C)(C)C(=O)O)c(C)c2)cc1` [Compound of formula (I)], the EC50 was less than 100 nM in test [1] (agonist mode), more than 250 nM in test [2] (agonist mode) and less than 100 nM in test [4] (agonist mode). Also, the “activation effect on PPAR Alpha receptor” value in test [1] (summary of Table 5) is on record as “significant activation effect”. Further, in test [2] (summary of Table 5), the “activation effect on PPAR Gamma receptor” value was “selective activation effect”. For the same compound, in test [3], the “effect on NAS Score” value was “significantly improving effect”. Further, the “effect on liver fibrosis” value in test [3] is listed as “significantly improving effect”. In addition, the “activation effect on PPAR Delta receptor” value in test [4] (summary of Table 5) is listed as “significant activation effect”. Besides, in test [5], the “effect on liver injury” value is on record as “significantly improving effect”.
